Laboratory results from BindingDB's records for doi:10.1016/j.bmcl.2011.06.024 (Merck Research Laboratories, 2011).

Target: T1, Smoothened homolog (Homo sapiens, UniProt Q99835)
Assay: Antagonist activity at smoothened expressed in mouse Shh Light2 cells co-expressing Gli-dependent reporter gene assessed as inhibition of Hh pathway

T1 sequence (Q99835 whole entry): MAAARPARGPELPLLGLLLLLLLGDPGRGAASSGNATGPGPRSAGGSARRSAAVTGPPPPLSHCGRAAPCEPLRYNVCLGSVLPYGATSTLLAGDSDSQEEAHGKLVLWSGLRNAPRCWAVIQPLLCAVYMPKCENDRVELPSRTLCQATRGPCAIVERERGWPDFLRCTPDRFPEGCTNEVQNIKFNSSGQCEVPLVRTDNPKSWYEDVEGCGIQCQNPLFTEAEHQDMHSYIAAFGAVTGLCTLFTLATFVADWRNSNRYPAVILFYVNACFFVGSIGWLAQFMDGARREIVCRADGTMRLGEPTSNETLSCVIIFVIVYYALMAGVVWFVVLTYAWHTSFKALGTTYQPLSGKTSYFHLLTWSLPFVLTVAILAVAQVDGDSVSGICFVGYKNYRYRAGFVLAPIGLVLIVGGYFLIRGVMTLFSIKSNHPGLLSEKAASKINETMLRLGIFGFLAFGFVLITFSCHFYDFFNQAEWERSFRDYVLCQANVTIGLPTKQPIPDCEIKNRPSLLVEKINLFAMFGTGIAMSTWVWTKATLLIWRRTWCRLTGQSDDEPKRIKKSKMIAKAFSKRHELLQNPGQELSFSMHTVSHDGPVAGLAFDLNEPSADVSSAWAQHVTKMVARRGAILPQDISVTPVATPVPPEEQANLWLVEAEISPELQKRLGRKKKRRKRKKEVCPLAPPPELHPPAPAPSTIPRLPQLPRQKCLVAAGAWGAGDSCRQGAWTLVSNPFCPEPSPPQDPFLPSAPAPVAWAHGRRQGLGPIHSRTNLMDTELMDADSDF

Row | IC50 | Compound
1 | > 2500 nM | O=C(Nc1ccccc1-c1ccccc1)N1CCn2c(c(O)n(C3CC34CCCCC4)c2=O)C1 (stereo not given)

Target: not listed separately
Assay: Antagonist activity at smoothened expressed in mouse Shh Light2 cells co-expressing Gli-dependent reporter gene assessed as inhibition of Hh pathway

Row | Compound | IC50
2 | O=C(Nc1ccncc1-c1ccccc1)N1CCn2c(c(O)n([C@H]3C[C@@H]3c3ccccc3)c2=O)C1 | 89 nM
3 | COc1cccc(-c2ncccc2NC(=O)N2CCn3c(c(O)n([C@H]4C[C@@H]4c4ccccc4)c3=O)C2)c1 | 82 nM
4 | O=C(Nc1cccnc1-c1ccsc1)N1CCn2c(c(O)n([C@H]3C[C@@H]3c3ccccc3)c2=O)C1 | 240 nM
5 | O=C(Nc1ccnn1-c1ccccc1)N1CCn2c(c(O)n([C@H]3C[C@@H]3c3ccccc3)c2=O)C1 | 16 nM
6 | O=C(Nc1ccccc1-c1ccccc1)c1ccc2c(c1)C(=O)N([C@H]1C[C@@H]1c1ccccc1)C2=O | 4600 nM
7 | CC(C)(C)C(=O)N1CCn2c(c(O)n([C@H]3C[C@@H]3c3ccccc3)c2=O)C1 | 4500 nM
8 | O=C(NC1CCCCC1)N1CCn2c(c(O)n([C@H]3C[C@@H]3c3ccccc3)c2=O)C1 | 600 nM
9 | CCCCCCNC(=O)N1CCn2c(c(O)n([C@H]3C[C@@H]3c3ccccc3)c2=O)C1 | 1500 nM
10 | O=C(Nc1cc(Cl)cc(Cl)c1)N1CCn2c(c(O)n([C@H]3C[C@@H]3c3ccccc3)c2=O)C1 | 780 nM
11 | O=C(Nc1ccc2c(c1)OCO2)N1CCn2c(c(O)n([C@H]3C[C@@H]3c3ccccc3)c2=O)C1 | 2700 nM
12 | O=C(Nc1ccccc1-c1ccccc1)N1CCn2c(c(O)n(CCc3ccccc3)c2=O)C1 | 5000 nM
13 | O=C(Nc1ccccc1-c1ccccc1)N1CCn2c(c(O)n(C3Cc4ccccc4C3)c2=O)C1 | 320 nM
14 | Cc1c(Cl)cccc1NC(=O)N1CCn2c(c(O)n([C@H]3C[C@@H]3c3ccccc3)c2=O)C1 | 370 nM
15 | Cc1cccc(Cl)c1NC(=O)N1CCn2c(c(O)n([C@H]3C[C@@H]3c3ccccc3)c2=O)C1 | 530 nM
16 | O=C(Nc1c(Cl)cc(C(F)(F)F)cc1Cl)N1CCn2c(c(O)n([C@H]3C[C@@H]3c3ccccc3)c2=O)C1 | 330 nM
17 | Cc1cc(C#N)cc(Cl)c1NC(=O)N1CCn2c(c(O)n([C@H]3C[C@@H]3c3ccccc3)c2=O)C1 | 150 nM
18 | CC(C)c1ccccc1NC(=O)N1CCn2c(c(O)n([C@H]3C[C@@H]3c3ccccc3)c2=O)C1 | 180 nM

Next, values leading:

Row | IC50 | Compound
19 | 28 nM | O=C(Nc1cccnc1-c1ccccc1)N1CCn2c(c(O)n([C@H]3C[C@@H]3c3ccccc3)c2=O)C1
20 | 18 nM | O=C(Nc1cccnc1-c1cccc(Cl)c1)N1CCn2c(c(O)n([C@H]3C[C@@H]3c3ccccc3)c2=O)C1
21 | 1200 nM | Cn1cc(-c2ncccc2NC(=O)N2CCn3c(c(O)n([C@H]4C[C@@H]4c4ccccc4)c3=O)C2)cn1
22 | 3000 nM | O=C(Nc1ccccc1-c1ccccc1)N1CCN2C(=O)N([C@H]3C[C@@H]3c3ccccc3)CC2C1 (stereo not given in full)
23 | 1900 nM | CCCCN(CCCC)C(=O)N1CCn2c(c(O)n([C@H]3C[C@@H]3c3ccccc3)c2=O)C1
24 | 340 nM | O=C(Nc1cccc(Cl)c1Cl)N1CCn2c(c(O)n([C@H]3C[C@@H]3c3ccccc3)c2=O)C1
25 | 1600 nM | CN(C(=O)N1CCn2c(c(O)n([C@H]3C[C@@H]3c3ccccc3)c2=O)C1)c1ccccc1-c1ccccc1
26 | 2500 nM | O=C(Nc1ccccc1-c1ccccc1)N1CCn2c(c(O)n(-c3cccc(-c4ccccc4)c3)c2=O)C1
27 | 2200 nM | COC(=O)c1cccc(NC(=O)N2CCn3c(c(O)n([C@H]4C[C@@H]4c4ccccc4)c3=O)C2)c1Cl
28 | 510 nM | O=C(Nc1ccc(F)c(Cl)c1Cl)N1CCn2c(c(O)n([C@H]3C[C@@H]3c3ccccc3)c2=O)C1
29 | 53 nM | CS(=O)(=O)c1cc(Cl)c(NC(=O)N2CCn3c(c(O)n([C@H]4C[C@@H]4c4ccccc4)c3=O)C2)c(Cl)c1

Target: T1, Smoothened homolog
Assay: Displacement of [125I]-PA cyclopamine from smoothened expressed in african green monkey COS-1 cells after 10 mins by autoradiography

Row | Compound | IC50
30 | COC(=O)N1CCn2c(c(O)n([C@H]3C[C@@H]3c3ccccc3)c2=O)C1 | > 1500 nM
31 | O=C(C1CCCCC1)N1CCn2c(c(O)n([C@H]3C[C@@H]3c3ccccc3)c2=O)C1 | > 1500 nM
32 | O=c1n2c(c(O)n1[C@H]1C[C@@H]1c1ccccc1)CN(CC1CCCCC1)CC2 | > 2500 nM
33 | O=C(Nc1ccccc1-c1ccccc1)N1CCn2c(c(O)n(Cc3ccccc3)c2=O)C1 | > 2500 nM
34 | O=C(Nc1ccccc1-c1ccccc1)N1CCn2c(c(O)n(-c3cccc4ccccc34)c2=O)C1 | > 2500 nM
35 | CN(C)C(=O)N1CCn2c(c(O)n([C@H]3C[C@@H]3c3ccccc3)c2=O)C1 | > 2500 nM

Second part, the molecule after the results:

Row | IC50 | Compound
36 | > 2500 nM | O=C(Nc1ccccc1-c1ccccc1)N1CCn2c(c(O)n(-c3cccc(-c4ccccc4)c3)c2=O)C1
37 | > 2500 nM | O=C(Nc1ccccc1-c1ccccc1)N1CCn2c(c(O)n(C3CC34CCCCC4)c2=O)C1 (stereo not given)
38 | > 1500 nM | CC(=O)N1CCn2c(c(O)n([C@H]3C[C@@H]3c3ccccc3)c2=O)C1
39 | > 2500 nM | O=C(NCc1ccco1)N1CCn2c(c(O)n([C@H]3C[C@@H]3c3ccccc3)c2=O)C1
40 | > 2500 nM | CCCCn1c(O)c2n(c1=O)CCN(C(=O)Nc1ccccc1-c1ccccc1)C2
